Series [1] addresses T1, cathepsin B (Homo sapiens, UniProt P07858).
T1 construct: cathepsin B from human liver (Sigma); purchased Sigma; host or cells: human liver (tissue-purified)
The experiment in a line: Cathepsin B activity assay (fluorogenic Z-Arg-Arg-AMC substrate). It counts as biochemical. The following applies: cathepsin B from human liver; read-out: IC50, inhibitory activity towards cathepsin B. The protocol: (§1) Enzyme-inhibitory activity assays were tested according to literatures reported.
Figure S32. IR spectrum of 8-methoxy-1-naphthyl-1-(6′-O-acetyl)-α-glucopyranoside (10).
S1. Enzyme Inhibitory Assay
S1.1. Cathepsin B Activity Assay
The assay was performed in 96-well plate according to a published method with modification.
Brifely, 50 μL reaction buffer (100 mM sodium acetate (pH 5.5), 1 mM EDTA, 4 mM dithiothreitol) containing 0.0025 unit of cathepsin B from human liver (Sigma, one unit will liberate 1 nanomole of 7-amino-4-methylcoumarin from Z-Arg-Arg 7-amido-4-methylcoumarin per min at pH 6.0 at 40 °C) and 2 μL test compounds dissolved in DMSO were added to each well of a 96-well plate. After preincubation for 15 min at room temperature, 50 μL of reaction buffer containing 100 μM Z-Arg-Arg-7-amido-4-methylcoumarin (Sigma) was added and incubated for 30 min at room temperature.
Fluorescence was measured using a microplate reader (Wallac 1420 Victor 2, PerkinElmer, HolIand) with an excitation of 355 nm and emission at 460 nm.
His-taged human IMPDH П was recombinantly expressed in Escherichia coli and purified by Ni-NTA affinity chromotagraphy as described previously. The IMPDH activity assay was performed in 200-μL assay volume of 96-well plate. Briefly, 2 μL of test compound (dissolved in DMSO) or DMSO and 150 μL enzyme buffer containing 100 mM KH2PO4, 0.5 mM EDTA pH 8, and 2 mM dithiothreitol and 50 nM IMPDH were added into the plate and incubated at 37 °C for 15 min. The reaction was initiated by adding 50 μL reaction buffer containing a final concentration of 200 μM inosine 5-monophosphate (Sigma) and 200 μM NAD (Sigma). The OD was read at 340 nm after incubation at 37 °C for 30 min with a microplate reader (Wallac 1420 Victor 2, PerkinElmer, HolIand).
(1 picture or pasted object on this page, not shown here)

For series [2], the target named is T2, IMPDH (Homo sapiens, UniProt P12268).
T2 construct: His tag; made in house; host or cells: Escherichia coli
The series is described as follows: IMPDH enzyme assay (OD at 340 nm). In kind it is biochemical. The following applies: recombinant human IMPDH II; read-out: IC50, inhibitory activity towards IMPDH.

For series [3], the target named is T3, SHP2 (Homo sapiens, UniProt Q06124).
T3 construct: made in house; host or cells: E. coli
T3 sequence (Q06124 1-593): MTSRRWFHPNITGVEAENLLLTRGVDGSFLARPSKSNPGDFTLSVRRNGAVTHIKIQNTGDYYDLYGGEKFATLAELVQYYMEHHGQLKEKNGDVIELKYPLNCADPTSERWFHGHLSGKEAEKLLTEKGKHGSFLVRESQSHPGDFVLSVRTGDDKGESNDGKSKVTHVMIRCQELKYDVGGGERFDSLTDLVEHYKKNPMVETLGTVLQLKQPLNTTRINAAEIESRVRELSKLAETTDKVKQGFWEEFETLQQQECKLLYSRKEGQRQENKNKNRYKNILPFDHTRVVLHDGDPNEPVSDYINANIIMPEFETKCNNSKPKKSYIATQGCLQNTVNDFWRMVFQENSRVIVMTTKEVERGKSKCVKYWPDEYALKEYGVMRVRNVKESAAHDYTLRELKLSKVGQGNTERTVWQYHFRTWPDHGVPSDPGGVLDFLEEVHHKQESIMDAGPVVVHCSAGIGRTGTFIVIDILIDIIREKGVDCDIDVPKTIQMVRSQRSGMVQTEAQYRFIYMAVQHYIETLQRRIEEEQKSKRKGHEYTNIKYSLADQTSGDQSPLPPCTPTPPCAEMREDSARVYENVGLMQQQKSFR
The experiment in a line: SHP2 activity assay (pNPP substrate). It counts as biochemical. Conditions: human recombinant enzyme, read-out: IC50, inhibitory activity towards SHP2. The procedure: as §1
S1.3. PTP1B and SHP2 Activity Assays
Human recombinant PTP1B and SHP2 were expressed in E. coli and purifed by Ni-NTA affinity chromotagraphy in our laboratory, respectively. The enzyme activity was measured using p-nitrophenyl phosphate (pNPP) as substrate in a 96-well plate. Brifely, purified recombinant PTP1B or SHP2 (0.05 μg) in 50 μL buffer containing 50 mM citrate (pH 6.0), 0.1 M NaCl, 1 mM EDTA, and 1 mM dithiothreitol (DTT) and test compounds were added to each well of a 96-well plate. After preincubation for 15 min at room temperature, 50 μL of reaction buffer containing 2 mM pNPP was added and incubated at 37 °C for 30 min. The PTP1B or SHP2 activity was measured by detecting the absorbance at 405 nm for the amount of produced p-nitrophenol.
(§2) S2. Larval Settlement Bioassays
(§3) Antifouling activity of compounds was evaluated in settlement inhibition assays with laboratory-reared B. neritina larvae. Larval settlement bioassays were performed using sterile 24-well polystyrene plates as previously reported. Briefly, the stock solution of tested samples in DMSO was diluted with autoclaved filtered sea water (FSW) to concentrations ranging from 1 to 300 ppm. Then the EC50 and LC50 values of active compounds were calculated. In this way, about 20 competent larvae were added to each well in 1 mL of the test solution. Wells containing only FSW with DMSO served as the controls.
(§4) Three replicates of each treatment were used. The plates were incubated at 27 °C for 1 h. The percentage of larval settlement was determined by counting the settled, live individuals under a dissecting microscope and expressing the result as a proportion of the total number of larvae in the well. EC50 (inhibits 50% of settlement of B. neritina larvae in comparison with the control) and LC50 (refers to the concentration that kills 50% of the test organisms in comparison with the control) levels of active compounds were calculated by using the Excel software program.

The subject of series [4] is Bugula neritina larvae. The series is described as follows: Larval settlement (antifouling) bioassay. Conditions: for LC50/EC50: B. neritina larvae, ratio of lethal to settlement-inhibiting concentration; for EC50: Bugula neritina, 1 h, read-out: EC50, antifouling activity against B. neritina larvae settlement. The protocol:
Larval culture and larval settlement assays matched the method reported in reference. […]
as §2, §3, §4

Series [5] has as its target T4, PTPlB (Homo sapiens, UniProt P18031).
T4 construct: made in house; host or cells: E. coli
T4 sequence (P18031 1-435): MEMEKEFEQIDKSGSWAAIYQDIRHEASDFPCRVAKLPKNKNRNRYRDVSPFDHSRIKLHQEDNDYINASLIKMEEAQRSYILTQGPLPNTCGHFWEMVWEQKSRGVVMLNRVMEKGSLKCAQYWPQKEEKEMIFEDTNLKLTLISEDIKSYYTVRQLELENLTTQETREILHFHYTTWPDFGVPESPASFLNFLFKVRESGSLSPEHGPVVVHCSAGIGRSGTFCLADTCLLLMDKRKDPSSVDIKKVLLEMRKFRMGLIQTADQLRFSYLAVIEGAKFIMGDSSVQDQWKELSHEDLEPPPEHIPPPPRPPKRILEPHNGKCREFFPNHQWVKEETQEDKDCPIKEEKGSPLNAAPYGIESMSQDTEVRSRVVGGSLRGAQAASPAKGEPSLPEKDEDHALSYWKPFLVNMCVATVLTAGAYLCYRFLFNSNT
The series is described as follows: PTP1B activity assay (pNPP substrate). In kind it is biochemical. The following applies: human recombinant enzyme, read-out: IC50, inhibitory activity towards PTPlB.

Details of series [6]: method as in doi:10.1016/j.tet.2009.02.054. Conditions: previous studies ref 23; cited from earlier work.

In brackets after ≈: the same amount, converted by molar mass. Read-outs that look alike come from different tables or passages of the source. Bounds are passed on as bounds.

For orientation: IC50 means the midpoint of a concentration-inhibition curve. For the compound `CC(=O)N[C@@H](CC(C)C)C(=O)N[C@@H](CC(C)C)C(=O)N[C@H](C=O)CCCNC(=N)N` [leupeptin, reference compound], in series [1], the IC50 is 0.03 µM.

Broadly, the EC50 is the concentration needed to bring the measured effect to its halfway point. For the compound `Cc1c2c(c3oc4cc(=O)c(C)c5c-4c(c3c1O)O[C@H](C)[C@H]5C)O[C@H](C)[C@H]2C` [Compound 6, dicitrinin A], the IC50 was 98.7 ± 6.2 µM in series [2] and 58.4 ± 4 µM in series [3]. Moreover, the LC50/EC50 in series [4] is listed as over 56. For the same compound, in series [4], the EC50 was found to be 1.76 ± 0.8 µg/mL (≈ 4.63 µM).

With `C[C@H]1[C@H](C)CC[C@]2(C(=O)O)CC[C@]3(C)C(=CC[C@@H]4[C@@]5(C)CC[C@H](O)C(C)(C)[C@@H]5CC[C@]43C)[C@H]12` [ursolic acid, reference compound], the IC50 in series [3] was 2.8 µM.

Turning to `O=C1C[C@@H](O)[C@@H](O)c2cccc(O)c21` [Compound 17, (3R,4S)-(+)-4-hydroxy-6-deoxyscytalone], the IC50 in series [2] was found to be 41.2 ± 3.6 µM; in series [5], 13.9 ± 1.8 µM; in series [3], 4.1 ± 0.6 µM. Also, the “phytotoxicity (in words)” value in series [6] was “phytotoxic substance”.

Consider `Cc1c(O)c(C(=O)O)c(O)c2c1[C@H](C)[C@@H](C)OC2=O` [Compound 4, dihydrocitrinone], for which the IC50 in series [1] is 28.5 ± 1.7 µM.

Turning to `Cc1c([C@H](C)[C@@H](C)O)cc(O)c(C(=O)O)c1O` [Compound 7, phenol A acid], the IC50 in series [1] was determined as 20.4 ± 1.9 µM. Further, the LC50/EC50 in series [4] is over 15. For the same compound, in series [4] (27 °C), the EC50 was determined as 14.3 ± 1.72 µg/mL (≈ 59.7 µM).

Source of the values: PMC3707170, “Polyketides from a Marine-Derived Fungus Xylariaceae sp” (Marine Drugs, 2013).
